# Results from US20220151979A1, “COMPOSITION FOR PREVENTION OR TREATMENT OF CARDIOVASCULAR AND METABOLIC DISEASE COMPRISING NORANHYDROICARITIN” (SEOUL NATIONAL UNIVERSITY HOSPITAL, priority 2019, published 2022).
# Tests used:
# HepG2 cells = assay: MTT cell viability of HepG2 cells; format: cell-based, human
# Description: In order to confirm the toxicity of noranhydroicaritin to cells, HepG2 cells (human liver hepatocellular carcinoma) were treated with each of kaempferol and noranhydroicaritin at various concentrations, and the cell viability of HepG2 cells at each concentration was calculated through the MTT screening method.
# Specifically, HepG2 cells were suspended in DMEM (Welgene Inc.) medium containing 10% fetal bovine serum at a concentration of 1×10^5 cells/mL, and 100 μL thereof was inoculated into each well of a 96-well plate. After 4 hours, the HepG2 cells in the well plate were treated with each of kaempferol and noranhydroicaritin samples at concentrations of 2.5 μM, 5 μM, 10 μM, and 20 μM. After incubation for 24 hours, 5 μL of MTT (5 mg/mL) was added to the well plate, and the cells were further incubated for 4 hours. Thereafter, the medium was removed, 100 μL of DMSO was added to the well plate, the reaction was conducted, and then the absorbance was measured at 570 nm. As a control, cholesterol synthesis inhibitors atorvastatin (Ato) and rosuvastatin (Ros) were used. The cell viability was calculated according to the following mathematical formula as a value relative to 100% of the value for the negative control treated only with DMSO. The results are illustrated in FIG. 1. […]
# PCSK9 [1] = assay: Immunoblot of PCSK9 in HepG2 cells; format: cell-based, human; conditions: HepG2 cells, 5, 10, 20 μM
# Description: (§1) In order to confirm the effect of noranhydroicaritin to inhibit PCSK9 expression and increase LDLR expression, immunoblotting targeting PCSK9 and LDLR was performed and the expression levels were compared. β-Actin was used as a control.
# (§2) In a 100 mm Petri dish, 1×10^6 HepG2 cells were aliquoted and treated with noranhydroicaritin at various concentrations (5 μM, 10 μM, and 20 μM), and then the cells were removed from the cell-culture dish and homogenized using a protein extraction solution (NP40, ELPIS BIOTECH, Korea) containing a protease inhibitor cocktail (Roche).
# (§3) In order to prepare the total protein, the cells were extracted in RIPA lysis buffer (50 mM Tris-HCl (pH 7.4), 150 mM NaCl, 5 mM EDTA, 5 mM EGTA, 5 mM sodium fluoride, 2 mM sodium orthovanadate, 1% NP-40, 0.1% sodium dodecyl sulfate [SDS], 1 mM phenylmethylsulfonyl fluoride [PMSF], and protein inhibitor cocktail [Roche Diagnostics, Heidelberg, Germany]). The protein concentration in the lysate was measured using the Bio-Rad dye-binding micro assay. For immunoblotting, 30 μg of cell lysate was isolated via SDS-polyacrylamide gel electrophoresis (PAGE). The proteins were transferred onto the Hybond-ECL nitrocellulose membrane (Amersham Biosciences, Buckinghamshire, UK). […] HRP-conjugated secondary antibodies were detected using an ECL detection reagent.
# LDLR = assay: Immunoblot of LDLR in HepG2 cells; format: cell-based, human; conditions: HepG2 cells, 5, 10, 20 μM
# Description: as §1, §2, §3
# PCSK9 [2] = assay: Immunoblot of PCSK9 in HepG2 cells, noranhydroicaritin and statin singly or in combination; format: cell-based, human; conditions: treated singly
# Description: The cells aliquoted by the method of Example 7 were treated with noranhydroicaritin or a statin (atorvastatin or rosuvastatin) singly or with noranhydroicaritin and a statin (atorvastatin or rosuvastatin) simultaneously, and the proteins were extracted. On an SDS-polyacrylamide gel, 30 μg of each protein was electrophoresed, and attached to a membrane, and then protein expression levels were confirmed using the respective antibodies: phospho-AMPK, PCSK9, LDLR, and PPARγ.
# HEK293T cells = assay: MTT cell viability of HEK293T cells; format: cell-based, human; conditions: 20 μM, 24 hours, relative to DMSO negative control
# Description: In order to confirm the toxicity of noranhydroicaritin to cells, HEK293T (human embryonic kidneys) were treated with noranhydroicaritin at various concentrations, and the cell viability at each concentration of noranhydroicaritin was calculated through the MTT screening method.
# Specifically, HEK293T cells were suspended in DMEM (Welgene Inc.) medium containing 10% fetal bovine serum at a concentration of 1×10^5 cells/mL, and 100 μL thereof was inoculated into each well of a 96-well plate. After 4 hours, the HEK293T cells in the well plate were treated with noranhydroicaritin samples at concentrations of 2.5 μM, 5 μM, 10 μM, and 20 μM. After incubation for 24 hours, 5 μL of MTT (5 mg/mL) was added to the well plate, and the cells were further incubated for 4 hours. Thereafter, the medium was removed, 100 μL of DMSO was added to the well plate, the reaction was conducted, and then the absorbance was measured at 570 nm. As a control, cholesterol synthesis inhibitors atorvastatin (Ato) and rosuvastatin (Ros) were used. The cell viability was calculated according to the mathematical formula as a value relative to 100% of the value for the negative control treated only with DMSO. The results are illustrated in FIG. 2.
# atherosclerotic plaque = assay: Gross plaque imaging in PCSK9-injected mouse carotid-ligation arteriosclerosis model; format: in vivo; conditions: AAV-PCSK9 virus, high-fat diet, 10 μg/g/day, 3 weeks after ligation, vehicle group about 45%
# Description: By ligation to the carotid artery of 6- to 8-week-old mice, mechanical stress was applied to induce inflammation, thrombosis, oxidative stress, and shear stress, and the function and structure of the external carotid (EC) were changed to prepare an atherosclerosis model (FIG. 13). Specifically, ligation was performed on the left common carotid artery (LCA) after abdominal anesthesia by performing carotid artery ligation on mice fed a high-fat diet for one week. Partial ligation of three branches in the LCA, the external carotid artery (ECA), the internal carotid artery (ICA), and the occipital artery (OA) was performed. At this time, ICA and OA were ligated, and ECA was ligated separately. In mice subjected to ligation, the amount of blood flow to the heart decreased and the direction of blood flow changed, whereby an atherosclerosis model was prepared. Carotid artery ligation was performed one week after injection of AAV-PCSK9 Virus (1×10^11 IFU/mL) and noranhydroicaritin (10 μg/g/day). After 3 weeks of ligation, it was confirmed whether the atherosclerosis model was completed, and gross plaque imaging and immunofluorescence were performed to confirm the arteriosclerosis inhibitory effect of noranhydroicaritin.
compound,measurement,setting,value
"CC(C)=CCc1c(O)cc(O)c2c(=O)c(O)c(-c3ccc(O)cc3)oc12 [Noranhydroicaritin, noranhydroicaritin]",cell viability,"HepG2 cells; 20 μM, 24 hours, MTT, relative to DMSO negative control",≥ 90%
same,cell viability compared with control,HepG2 cells; same concentration as atorvastatin or rosuvastatin,higher than the cell viability of the cells treated with atorvastatin or rosuvastatin
same,PCSK9 expression (immunoblot),PCSK9 [1],decreased in a concentration-dependent manner
same,LDLR expression (immunoblot),LDLR,increased in a concentration-dependent manner
same,quantity of PCSK9 (immunoblot),PCSK9 [2],decreased
same,cell viability,HEK293T cells,≥ 90%
same,atherosclerotic plaque-formed area,atherosclerotic plaque,about 20%
